Consider six compounds from patent US10806746B2, “Di- and tri-cationic glycosylated antitumor ether lipids, L-gucosylated gaels and rhamnose-linked gaels as cytotoxic agents against epithelial cancer cells and cancer stem cells” (The University of Manitoba, priority 2014, dated 2020).

Holding throughout (type): cell-based, human
One series has as its system DU145 cells. In words: MTS viability assay, DU145 prostate cancer cells. Summed up:
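DU145 cells in DMEM + 10% FBS plated 24 h, then treated with compounds (0–30 μM) for 48 h. Viability by MTS (20% vol/vol, 1–4 h) read at OD490 against cell-free blanks; mean±SD of 6 determinations.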
A general note: Tetrazolium dyes change colour on reduction, which living cells bring about.

Another series concerns MiaPaCa2 cells. In words: MTS viability assay, MiaPaCa2 pancreas cancer cells. Summed up:
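Cells in DMEM with 10% FBS and 2.5% horse serum were plated 24 h, then exposed to compounds (0-30 μM) for 48 h. MTS reagent (20% vol/vol) added for 1-4 h, OD490 read against cell-free blanks; mean±SD of 6 independent determinations.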

The subject of a further series is JIMT-1 cells. In words: MTS viability assay, JIMT-1 breast cancer cells. Summed up: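 After 24 h plating in DMEM with 10% FBS, JIMT-1 cells were exposed to compound (0–30 μM) for 48 h. Viability was read as OD490 after 1–4 h with MTS reagent (20% vol/vol), blanked against cell-free wells. Values are mean±SD of 6 independent determinations.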
The next series deals with MDA-MB-231 cells. In words: MTS viability assay, MDA-MB-231 breast cancer cells. Summed up: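 MDA-MB-231 cells in DMEM with 10% FBS, plated 24 h, then exposed to compounds (0-30 μM) for 48 h. MTS reagent (20% vol/vol) added for 1-4 h and OD490 read against cell-free blanks; mean±SD of 6 independent determinations.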
Where [1] appears, read: Homo sapiens, DU-145, Table 5, 48 h, read-out: CC50 DU-145.
[2] abbreviates: Homo sapiens, DU-145, Table 5, 48 h, read-out: CC90 DU-145.
[3] abbreviates: Homo sapiens, MIA PaCa-2, Table 5, 48 h, read-out: CC50 Mlapaca2.
Where [4] appears, read: Homo sapiens, MIA PaCa-2, Table 5, 48 h, read-out: CC90 Mlapaca2.
Where [5] appears, read: Homo sapiens, JIMT-1, Table 5, 48 h, read-out: CC50 JIMT1.
Where [6] appears, read: Homo sapiens, JIMT-1, Table 5, 48 h, read-out: CC90 JIMT1.
Where [7] appears, read: Homo sapiens, MDA-MB-231, Table 5, 48 h, read-out: CC50 MDA-MB-231.
Setting [8] is: Homo sapiens, MDA-MB-231, Table 5, 48 h, read-out: CC90 MDA-MB-231.
Setting [9] is: Table 1A, 48 h, read-out: CC50 values DU 145.
Where [10] appears, read: Table 1B, 48 h, read-out: CC90 values DU 145.
Where [11] appears, read: Table 1A, 48 h, read-out: CC50 values MiaPaCa2.
[12] abbreviates: Table 1B, 48 h, read-out: CC90 values MiaPaCa2.
Setting [13] is: Table 1A, 48 h, read-out: CC50 values JIMT1.
The mark [14] stands for this setting: Table 1B, 48 h, read-out: CC90 values JIMT1.
Setting [15] is: Table 1A, 48 h, read-out: CC50 values MD 231.
Setting [16] is: Table 1B, 48 h, read-out: CC90 values MD 231.

Where two headings read alike, the source gives them in different places. Some results are limits rather than exact numbers.

As for `CCCCCCCCCCCCCCCCOC[C@H](CO[C@H]1O[C@H](CN)[C@@H](O)[C@H](O)[C@H]1N)OC` [Compound 1, 1-O-Hexadecyl-2-O-methyl-3-O-(2′,6′-diamino-2′,6′-dideoxy-α-D-glucopyranosyl)-sn-glycerol], the cytotoxic concentration (CC50) (commonly the concentration at which the toxic effect on the cells reaches its halfway point) with DU145 cells (Homo sapiens, DU-145, Table 1A, 48 h, read-out: CC50 values DU 145) was determined as 5.2 µM; with DU145 cells (setting [1]), 5.2 µM; in the series with MiaPaCa2 cells (Homo sapiens, MIA PaCa-2, Table 1A, 48 h, read-out: CC50 values MiaPaCa2), 3.5 µM; with MiaPaCa2 cells (setting [3]), 3.5 µM; in the series with JIMT-1 cells (Homo sapiens, JIMT-1, Table 1A, 48 h, read-out: CC50 values JIMT1), 3.5 µM; with JIMT-1 cells (setting [5]), 3.5 µM. Also, the CC50 in the series with MDA-MB-231 cells (Homo sapiens, MDA-MB-231, Table 1A, 48 h, read-out: CC50 values MD 231) turned out to be 3 µM; in the series on MDA-MB-231 cells (setting [7]) it was 3 µM. In addition, the CC90 in the series with DU145 cells (Homo sapiens, DU-145, Table 1B, 48 h, read-out: CC90 values DU 145) came out at 7.4 µM; with DU145 cells (setting [2]), 7.4 µM; with MiaPaCa2 cells (Homo sapiens, MIA PaCa-2, Table 1B, 48 h, read-out: CC90 values MiaPaCa2) it was 6.5 µM; with MiaPaCa2 cells (setting [4]), 6.5 µM; in the series on JIMT-1 cells (Homo sapiens, JIMT-1, Table 1B, 48 h, read-out: CC90 values JIMT1), 4.9 µM; in the series with JIMT-1 cells (setting [6]), 4.9 µM. In addition, the CC90 in the series on MDA-MB-231 cells (Homo sapiens, MDA-MB-231, Table 1B, 48 h, read-out: CC90 values MD 231) was 4.5 µM; in the series on MDA-MB-231 cells (setting [8]), 4.5 µM.

`CCCCCCCCCCCCCCCCOCCCO[C@@H]1O[C@H](CN)[C@@H](O)[C@H](O)[C@H]1N` [Compound 4, 1-O-Hexadecyl-2-deoxy-3-O-(2′6′-diamino-2′,6′-dideoxy-β-D-glucopyranosyl)-sn-glycerol]: the CC50 in the series with DU145 cells (setting [9]) is 6 µM; in the series with MiaPaCa2 cells (setting [11]), 6.5 µM; with JIMT-1 cells (setting [13]), 4 µM; in the series on MDA-MB-231 cells (setting [15]), 4.5 µM. For the same compound, the CC90 with DU145 cells (setting [10]) worked out at 8.5 µM; in the series with MiaPaCa2 cells (setting [12]), 13 µM; in the series on JIMT-1 cells (setting [14]), 6 µM; with MDA-MB-231 cells (setting [16]), 7 µM.

On to `CCCCCCCCCCCCCCCCOCC(CO[C@@H]1O[C@H](CN)[C@@H](O)[C@H](O)[C@H]1N)O[C@@H]1O[C@H](CN)[C@@H](O)[C@H](O)[C@H]1N` (stereo partly drawn) [Compound 5, 1-O-Hexadecyloxy-2S/R, 3-di(-2′,6′-diamino-2′, 6′-dideoxy-β-D-glucopyranosyl)-glycerol], for which the 50% cytotoxic concentration (CC50) in the series on DU145 cells (setting [9]), with MiaPaCa2 cells (setting [11]), in the series on JIMT-1 cells (setting [13]) and in the series on MDA-MB-231 cells (setting [15]) was above 30 µM throughout. The CC90 in the series with DU145 cells (setting [10]), with MiaPaCa2 cells (setting [12]), in the series on JIMT-1 cells (setting [14]) and in the series on MDA-MB-231 cells (setting [16]) was above 30 µM in each case.

`CCCCCCCCCCCCCCCCOC[C@@H](CN=[N+]=[N-])O[C@@H]1O[C@H](CO)[C@@H](O)[C@H](O)[C@H]1N` [Compound 6, 1-O-Hexadecyloxy-2R-(2′-amino-2′-deoxy-β-D-glucopyranosyl)-3-azido glycerol]: the CC50 is 12.5 µM in the series with DU145 cells (setting [9]), 11.5 µM in the series with MiaPaCa2 cells (setting [11]), 9.5 µM with JIMT-1 cells (setting [13]) and 11 µM in the series with MDA-MB-231 cells (setting [15]). Also, the CC90 with DU145 cells (setting [10]) was 18 µM; in the series with MiaPaCa2 cells (setting [12]) it was 18.5 µM; in the series with JIMT-1 cells (setting [14]), 13.5 µM; with MDA-MB-231 cells (setting [16]) it was 15 µM.

For the compound `CCCCCCCCCCCCCCCCOCC(CO[C@@H]1OC(CO)[C@H](O)[C@H](O)C1N)OC` (stereo partly shown) [Compound 69], the 50% cytotoxic concentration (CC50) in the series on DU145 cells (Homo sapiens, DU-145, Table 2A, 48 h, read-out: CC50 values DU 145) came out at 12.5 µM; with DU145 cells (setting [1]), 12.5 µM; in the series with MiaPaCa2 cells (Homo sapiens, MIA PaCa-2, Table 2A, 48 h, read-out: CC50 values MiaPaCa2), 7.5 µM; in the series with MiaPaCa2 cells (setting [3]), 7.5 µM; in the series with JIMT-1 cells (Homo sapiens, JIMT-1, Table 2A, 48 h, read-out: CC50 values JIMT1) it was 6.5 µM; in the series on JIMT-1 cells (setting [5]) it was 6.5 µM. Moreover, the CC50 with MDA-MB-231 cells (Homo sapiens, MDA-MB-231, Table 2A, 48 h, read-out: CC50 values MDA-MB-231) worked out at 11 µM; with MDA-MB-231 cells (setting [7]), 11 µM. Also, the CC90 was found to be 16 µM in the series on DU145 cells (Homo sapiens, DU-145, Table 2B, 48 h, read-out: CC90 values DU 145); 16 µM in the series on DU145 cells (setting [2]); 18 µM with MiaPaCa2 cells (Homo sapiens, MIA PaCa-2, Table 2B, 48 h, read-out: CC90 values MiaPaCa2); 18 µM in the series with MiaPaCa2 cells (setting [4]); 11 µM in the series on JIMT-1 cells (Homo sapiens, JIMT-1, Table 2B, 48 h, read-out: CC90 values JIMT1); 11 µM in the series with JIMT-1 cells (setting [6]). Further, the CC90 with MDA-MB-231 cells (Homo sapiens, MDA-MB-231, Table 2B, 48 h, read-out: CC90 values MDA-MB-231) was 17 µM; in the series with MDA-MB-231 cells (setting [8]) it was 17 µM.

Consider `CCCCCCCCCCCCCCCCOC[C@H](COC1O[C@H](CNCCCCCCCCCCCCN)[C@@H](O)[C@H](O)[C@H]1N)OC` (stereo partly shown) [Compound 73, 1-O-Hexadecyl-2-O-methyl-3-O-[6′-N-(12-aminododecyl)-2′,6′-diamino-2′,6′-dideoxy-glucopyranoside]-sn-glycerol], for which the CC50 in the series on DU145 cells (Table 6, 48 h, read-out: DU145 CC50) amounted to 3.8 µM; in the series with MiaPaCa2 cells (Table 6, 48 h, read-out: MiaPaCa2 CC50), 4 µM; in the series with JIMT-1 cells (Table 6, 48 h, read-out: JIMT1 CC50) it was 3.4 µM; in the series with MDA-MB-231 cells (Table 6, 48 h, read-out: MB-MDA-231 CC50), 1.5 µM. Besides, the CC90 with DU145 cells (Table 6, 48 h, read-out: DU145 CC90) stood at 4.8 µM; in the series on MiaPaCa2 cells (Table 6, 48 h, read-out: MiaPaCa2 CC90) it was 6.6 µM; in the series with JIMT-1 cells (Table 6, 48 h, read-out: JIMT1 CC90), 4.6 µM; in the series with MDA-MB-231 cells (Table 6, 48 h, read-out: MB-MDA-231 CC90) it was 3.8 µM.
